Results: patent US11312727B1, “Macrocyclic flu endonuclease inhibitors” (Janssen BioPharma, Inc., priority 2018, dated 2022)
Like-named read-outs stand apart in the source and are kept apart here.

What was measured:
[1] = rcm bond, DCE
in vitro = settings: human, CC50, uninfected A549 cells, CellTiter-Glo
[2] = tested on: Influenza strain A549 A/WSN/33 (H1N1); assay: microbe, parasite or virus in culture; format: cell-based; settings: Influenza A virus, A549, 20 h, A549 cells, influenza A/WSN/33 (H1N1), 20 hours incubation; read-out: A549_A(H1N1) EC50

Structure (SMILES)	ring closure, yield of all isomers ([1]; from C=CCCOc1cccc(C(c2ccccc2)N2CN(CC=C)C(=O)c3c(OCc4ccccc4)c(=O)ccn32)c1, Hoveyda-Grubbs 2nd generation, 12.1 mM, 90.0 °C, […]) [%]	ring closure, yield of all isomers ([1]; from C=CCCN1CN(C2c3ccccc3SCc3cccc(OCC=C)c32)n2ccc(=O)c(OCc3ccccc3)c2C1=O, Hoveyda-Grubbs catalyst 2nd generation, 13.86 mM, 80.0 °C, […]) [%]	ring closure, yield of all isomers ([1]; from C=CCCN1CN(C(c2ccccc2)c2ccccc2CC=C)n2ccc(=O)c(OCc3ccccc3)c2C1=O, Hoveyda-Grubbs 2nd generation, 12.7 mM, 80.0 °C, 3.0 h) [%]	CC50 (in vitro) [nM]	EC50 [2] [nM]
O=C1c2c(OCc3ccccc3)c(=O)ccn2N2CN1CC=CCCOc1cccc(c1)C2c1ccccc1 (centres unmarked)	8.9	–	–	–	–
O=C1c2c(OCc3ccccc3)c(=O)ccn2N2CN1CCC=CCOc1cccc3c1C2c1ccccc1SC3 (centres unmarked)	–	19.8	–	–	–
O=C1c2c(OCc3ccccc3)c(=O)ccn2N2CN1CCC=CCc1ccccc1C2c1ccccc1 (centres unmarked)	–	–	69.2	–	–
O=C1c2c(O)c(=O)ccn2N2CN1C1(/C=C/COc3ccccc3[C@H]2c2ccccc2)CC1 [Compound 79B, (18′R,E)-12′-hydroxy-18′-phenyl-6′H,18′H-spiro[cyclopropane-1,9′-[10,17]methanobenzo[b]pyrido[1,2-f][1]oxa[5,6,9]triazacyclotridecine]-11′,13′-dione]	–	–	–	> 1000	6
O=C1c2c(O)c(=O)ccn2N2CN1C/C=C/COc1cccc3c1[C@H]2c1ccccc1S(=O)(=O)C3 [Compound 82, (17aS,E)-12-hydroxy-2,6,9,17a-tetrahydro-3,4-(epiprop[1]en[1]yl[3]ylidene)-10,17-methanobenzo[6,7]thiepino[4,5-c]pyrido[1,2-f][1]oxa[5,6,9]triazacyclotridecine-11,13-dione 1,1-dioxide]	–	–	–	> 1000	71
O=C1c2c(O)c(=O)ccn2N2CN1C[C@H]1C[C@@H]1COc1cccc3c1[C@H]2c1ccccc1SC3 [Compound 87BA, (1aS,11bS,20aS)-17-hydroxy-1a,2,6,11b,20,20a-hexahydro-1H-5,4-(epiprop[1]en[1]yl[3]ylidene)-12,19-methanobenzo[6,7]thiepino[4,5-c]cyclopropa[k]pyrido[1,2-f][1]oxa[5,6,9]triazacyclotridecine-16,18-dione]	–	–	–	> 200	4
O=C1c2c(O)c(=O)ccn2N2CN1C[C@@H]1C[C@H]1COc1cccc3c1[C@H]2c1ccccc1SC3 [Compound 87BB, (1aR,11bS,20aR)-17-hydroxy-1a,2,6,11b,20,20a-hexahydro-1H-5,4-(epiprop[1]en[1]yl[3]ylidene)-12,19-methanobenzo[6,7]thiepino[4,5-c]cyclopropa[k]pyrido[1,2-f][1]oxa[5,6,9]triazacyclotridecine-16,18-dione]	–	–	–	> 200	4
CC[C@H]1/C=C\COc2cccc3c2[C@H](c2ccccc2SC3)N2CN1C(=O)c1c(O)c(=O)ccn12 [Compound 92AA, (13S,21aR,Z)-13-ethyl-16-hydroxy-6,10,13,21a-tetrahydro-7,8-(epiprop[1]en[1]yl[3]ylidene)-14,21-methanobenzo[6,7]thiepino[4,5-c]pyrido[1,2-f][1]oxa[5,6,9]triazacyclotridecine-15,17-dione]	–	–	–	> 1000	108
CC[C@@H]1/C=C/COc2cccc3c2[C@H](c2ccccc2SC3)N2CN1C(=O)c1c(O)c(=O)ccn12 [Compound 92AB, (9R,17aR,E)-9-ethyl-12-hydroxy-2,6,9,17a-tetrahydro-3,4-(epiprop[1]en[1]yl[3]ylidene)-10,17-methanobenzo[6,7]thiepino[4,5-c]pyrido[1,2-f][1]oxa[5,6,9]triazacyclotridecine-11,13-dione]	–	–	–	> 1000	> 500
CC[C@@H]1/C=C\COc2cccc3c2[C@@H](c2ccccc2SC3)N2CN1C(=O)c1c(O)c(=O)ccn12 [Compound 92BB, (13R,21aS,Z)-13-ethyl-16-hydroxy-6,10,13,21a-tetrahydro-7,8-(epiprop[1]en[1]yl[3]ylidene)-14,21-methanobenzo[6,7]thiepino[4,5-c]pyrido[1,2-f][1]oxa[5,6,9]triazacyclotridecine-15,17-dione]	–	–	–	> 100	1.5
CC[C@H]1/C=C/COc2c(ccc(F)c2F)[C@@H](c2ccccc2)N2CN1C(=O)c1c(O)c(=O)ccn12 [Compound 101AA, (9S,18R,E)-9-ethyl-3,4-difluoro-12-hydroxy-18-phenyl-6,9-dihydro-18H-10,17-methanobenzo[b]pyrido[1,2-f][1]oxa[5,6,9]triazacyclotridecine-11,13-dione]	–	–	–	> 100	0.7
CC[C@@H]1/C=C/COc2c(ccc(F)c2F)[C@@H](c2ccccc2)N2CN1C(=O)c1c(O)c(=O)ccn12 [Compound 101AB, (9R,18R,E)-9-ethyl-3,4-difluoro-12-hydroxy-18-phenyl-6,9-dihydro-18H-10,17-methanobenzo[b]pyrido[1,2-f][1]oxa[5,6,9]triazacyclotridecine-11,13-dione]	–	–	–	> 200	1.3
CC[C@H]1/C=C/COc2c(ccc(F)c2F)[C@H](c2ccccc2)N2CN1C(=O)c1c(O)c(=O)ccn12 [Compound 101BA, (9S,18S,E)-9-ethyl-3,4-difluoro-12-hydroxy-18-phenyl-6,9-dihydro-18H-10,17-methanobenzo[b]pyrido[1,2-f][1]oxa[5,6,9]triazacyclotridecine-11,13-dione]	–	–	–	> 200	> 100
CC[C@@H]1/C=C/COc2c(ccc(F)c2F)[C@H](c2ccccc2)N2CN1C(=O)c1c(O)c(=O)ccn12 [Compound 101BB, (9R,18S,E)-9-ethyl-3,4-difluoro-12-hydroxy-18-phenyl-6,9-dihydro-18H-10,17-methanobenzo[b]pyrido[1,2-f][1]oxa[5,6,9]triazacyclotridecine-11,13-dione]	–	–	–	29900	5030
O=C1c2c(O)c(=O)ccn2N2CN1C1(/C=C/COc3c(ccc(F)c3F)[C@H]2c2ccccc2)CC1 [Compound 102A, (18′R,E)-3′,4′-difluoro-12′-hydroxy-18′-phenyl-6′H,18′H-spiro[cyclopropane-1,9′-[10,17]methanobenzo[b]pyrido[1,2-f][1]oxa[5,6,9]triazacyclotridecine]-11′,13′-dione]	–	–	–	> 100	0.9
O=C1c2c(O)c(=O)ccn2N2CN1C1(/C=C/COc3c(ccc(F)c3F)[C@@H]2c2ccccc2)CC1 [Compound 102B, (18'S,E)-3′,4′-difluoro-12′-hydroxy-18′-phenyl-6′H,18′H-spiro[cyclopropane-1,9′-[10,17]methanobenzo[b]pyrido[1,2-f][1]oxa[5,6,9]triazacyclotridecine]-11′,13′-dione]	–	–	–	33900	3360
O=C1c2c(O)c(=O)ccn2N2CN1C/C=C/COc1c(F)cccc1[C@@H]2c1ccccc1C1CC1 [Compound 123B, (18S,E)-18-(2-cyclopropylphenyl)-4-fluoro-12-hydroxy-6,9-dihydro-18H-10,17-methanobenzo[b]pyrido[1,2-f][1]oxa[5,6,9]triazacyclotridecine-11,13-dione]	–	–	–	> 200	> 100
O=C1c2c(O)c(=O)ccn2N2CN1C1(/C=C/COc3c(ccc(F)c3F)[C@H]2c2ccccc2)CCC1 [Compound 146A, (18′R,E)-3′,4′-difluoro-12′-hydroxy-18′-phenyl-6′H,18′H-spiro[cyclobutane-1,9′-[10,17]methanobenzo[b]pyrido[1,2-f][1]oxa[5,6,9]triazacyclotridecine]-11′,13′-dione]	–	–	–	> 100	0.65
O=C1c2c(O)c(=O)ccn2N2CN1C1(/C=C/COc3c(ccc(F)c3F)[C@@H]2c2ccccc2)CCC1 [Compound 146B, (18'S,E)-3′,4′-difluoro-12′-hydroxy-18′-phenyl-6′H,18′H-spiro[cyclobutane-1,9′-[10,17]methanobenzo[b]pyrido[1,2-f][1]oxa[5,6,9]triazacyclotridecine]-11′,13′-dione]	–	–	–	> 10000	340
